The source of these data is US9382203B2, “N-carbamoylmethyl-4-(R)-phenyl-2-pyrrolidinone, method of its preparation and pharmaceutical use” (Joint Stock Company (JSC) “OLAINFARM”, priority 2006, dated 2016).

Marks after values point to notes of the source that are not given here.

What all share (type): in vivo
In assay [1] the test system is male ICR mice. Nature of the assay: Open field test, locomotor activity. The conditions noted are these: for Exploratory activity counts / Vertical activity counts / Horizontal activity counts: male ICR mice.
Assay [2] deals with male ICR mice. Nature of the assay: Muscle relaxant activity, chimney test. The following applies: Mus musculus, ip; i.p. administration in dosages 50; 100; 250 and 500 mg/kg.
In assay [3] the test system is male ICR mice. Nature of the assay: Porsolt forced swim test (FST). The conditions noted are these: for Immobility in FST (in words): after preliminary treatment, mice; for Immobilization time: i.p. 100 mg/kg, 1 hour before the test, male ICR mice.
The test system of assay [4] is male ICR mice. Nature of the assay: Muscle relaxant activity, traction test. The following applies: Mus musculus, ip; i.p. administration in dosages 50; 100; 250 and 500 mg/kg.
For assay [5], the system named is male ICR mice. The assay is described as follows: Muscle relaxant activity, rota rod test. The conditions noted are these: Mus musculus, ip; i.p. administration in dosages 50; 100; 250 and 500 mg/kg.
Assay [6] deals with male ICR mice. The assay is described as follows: Analgesic effect, hot plate test. The following applies: Mus musculus, ip; i.p. administration in dosages 50; 100; 250 and 500 mg/kg. Background: Hot-plate and tail-flick tests time the reaction to a heat stimulus.

On to `NC(=O)CN1C[C@@H](c2ccccc2)CC1=O` [R-Carphedon, N-Carbamoylmethyl-4(R)-phenyl-2-pyrrolidinone], for which the figures for the Exploratory activity counts with male ICR mice [1] (30 min after i.p. 50 mg/kg), in the assay with male ICR mice [1] (60 min after i.p. 50 mg/kg) and in the assay on male ICR mice [1] (120 min after i.p. 50 mg/kg) were 15.5 ± 2.9 counts, 16.4 ± 3.6 counts and 17.8 ± 4.7 counts, respectively. Also, the Vertical activity counts came to 10.0 ± 1.5 counts with male ICR mice [1] (30 min after i.p. 50 mg/kg), 12.5 ± 3.2 counts in the assay with male ICR mice [1] (60 min after i.p. 50 mg/kg) and 11.6 ± 4.0 counts in the assay with male ICR mice [1] (120 min after i.p. 50 mg/kg). Also, in the assay on male ICR mice [1] (i.p. 50 mg/kg), the “Activity at the end of the 120 min observation period relative to S-Carphedon” value is “about two times higher”. Also, the “Animal activity in open field test (in words)” value with male ICR mice [1] (i.p. 50 mg/kg, 120 min observation period) is “prolonged and stable increase in animal activity”. Also, the ED50 is 199 ± 38 mg/kg in the assay on male ICR mice [2], 456 ± 122 mg/kg with male ICR mice [4], 193 ± 26 mg/kg in the assay with male ICR mice [5] and 10 ± 42 mg/kg with male ICR mice [6]. In the assay on male ICR mice [3], the “Immobility in FST (in words)” value is recorded as “did not spent any time immobile”. Further, the Immobilization time in the assay on male ICR mice [3] is listed as 0^## sec.
Consider `NC(=O)CN1C[C@H](c2ccccc2)CC1=O` [S-Carphedon, N-Carbamoylmethyl-4(S)-phenyl-2-pyrrolidinone], for which the Horizontal activity counts in the assay with male ICR mice [1] (30 min after i.p. 50 mg/kg) was 56.3 ± 5.7 counts; in the assay with male ICR mice [1] (120 min after i.p. 50 mg/kg), 36.4 ± 7.1 counts. In addition, the Vertical activity counts in the assay on male ICR mice [1] (30 min after i.p. 50 mg/kg) is given as 7.0 ± 1.6 counts; in the assay on male ICR mice [1] (60 min after i.p. 50 mg/kg), 7.0 ± 2.8 counts; in the assay with male ICR mice [1] (120 min after i.p. 50 mg/kg), 4.9 ± 1.7 counts. Moreover, the Exploratory activity counts is recorded as 7.8 ± 4.2 counts with male ICR mice [1] (60 min after i.p. 50 mg/kg) and 11.5 ± 2.8 counts with male ICR mice [1] (120 min after i.p. 50 mg/kg). The ED50 in the assay on male ICR mice [2] came out at 286 ± 78 mg/kg; with male ICR mice [4] it was 548 ± 75 mg/kg; in the assay on male ICR mice [5], 459 ± 87 mg/kg; with male ICR mice [6] it was 50 ± 63 mg/kg. Further, in the assay with male ICR mice [3], the “Immobility in FST (in words)” value is recorded as “immobilization in response to stress factor”. Moreover, the Immobilization time in the assay with male ICR mice [3] was 110 ± 12 s.

The ED50 is the midpoint of the dose-response relation. High values mean a need for a large dose, low ones an effect at a small dose.
